This is an account of results in US10576086B2, “Triazine derivatives as interferon-gamma inhibitors” (University of Greenwich, priority 2015, dated 2020).

This test relates to IFN-γ production in human peripheral blood mononuclear cells (PBMCs). The test can be described thus: Experiment 1: IFN-γ production by PHA-stimulated human PBMCs, ELISA. The format is cell-based. The following applies: for IFN-γ Concentration, Mean: mean of first three subjects, 24 h. The protocol: The ex vivo activity of various compounds towards suppression of IFN-γ production in human peripheral blood mononuclear cells (PBMCs) was studied.
[…] They were not taking any other prescribed medication that could interfere with the results.
The blood was transferred into 50 ml centrifuge tubes (Corning, USA) containing heparin sodium salt 37.5 mg heparin powder diluted in 300-500 μl phosphate buffered saline (PBS) for 50 ml blood), and centrifuged at 2000 rpm for 10 minutes, and the plasma portion was separated. The plasma was further centrifuged at 3000 rpm for 10 minutes, and the supernatant separated and kept for later use.
The blood cells from the initial centrifugation were diluted with an equal volume of RPMI-1640 (Sigma, UK), and layered (2:1) onto Lymphoprep (Axis-Shield, Norway) in 25 ml universal tubes (Bibby Sterilin, UK) for density gradient centrifugation at 2500 rpm for 30 minutes.
PBMCs (lymphocytes and monocytes) were then removed from the interface, diluted in an equal volume of RPMI-1640 and washed twice by centrifugation at 3000 rpm for 10 minutes.
For testing, the PBMCs were re-suspended in a known volume of culture medium containing RPMI-1640 supplemented with 2 mM L-glutamine, 100 U penicillin, and 100 μg streptomycin (Sigma, UK).
The cell count was determined by the use of a haemocytometer using 10 μl of the cell suspension. The number of cells was determined based on a count in 5 random 1 mm squares.
The cell solution was then diluted with the supplemented RPMI-1640 medium to ensure a cell count of 2×10^6 cells/ml.
The PBMC suspension was added to tissue culture tubes (Bibby Sterilin, UK) with 5% autologous plasma, 5 μg/mlphytohaemaglutinin (PHA) to stimulate T-lymphocyte IFN-γ production, and a solution containing various concentrations of the compound to be studied. A control containing no compound was also cultured for each subject.
In the case of lamotrigine, the isethionate salt was used, and diluted with RPMI-1640 to produce 100 μM, 30 μM, 10 μM and 3 μM solutions that were tested on PBMCs from the first three subjects. With PBMC's from the other two subjects, a 300 μM solution was also tested.
For sipatrigine, the mesylate salt was used, and diluted with RPMI-1640 to produce 30 μM, 10 μM, 3 μM and 1 μM solutions. It was tested on PBMCs from the first three subjects only.
The tubes were incubated at 37° C. for 24 hours under a 5% CO2 atmosphere. After incubation, the cells (>75% viable according to trypan blue test) were centrifuged at 3000 prm for 10 minutes, and the cell-free supernatants were collected and stored at −70° C. before analysis for IFN-γ.
Levels of IFN-γ produced by the PBMCs were determined by the DuoSet ELISA Development system for human IFN-γ (RD Systems, UK), with a sensitivity of 15.6-1000 pg/ml.
Capture antibody, detection antibody, standard and streptavidin-HRP (streptavidin conjugated to horseradish peroxidase) were provided. A 96-well microtitre plate (Corning CoStar, flat bottom, polystyrene, high binding microtitre plate, UK) was coated with 100 μl per well of capture antibody (mouse anti-human IFN-γ at 4.0 μg/ml), sealed and incubated overnight. Unbound capture antibody was washed from the wells three times, using a wash buffer (0.05% Tween 20 in PBS). Block buffer (1% bovine serum albumin (BSA) in PBS) was then added. After incubation for 1 hour, the wells were washed, and sample culture supernatants or standards were added. A 7-point standard curve (in the range 15.6-1000 pg/ml) was produced from […] recombinant human IFN-γ using 2-fold serial dilutions in reagent diluent (0.1% BSA, 0.05% Tween 20 in tris-buffered saline (20 mM Trizma base, 150 mM NaCl)). The sealed plates were left to incubate for 2 hours.
After further washing, the detection antibody (biotinylated goat anti-human IFN-γ at 175 ng/ml) was added, and the plates sealed and incubated for a further 2 hours. […]

Regarding `CN1CCN(c2ncc(-c3cc(Cl)cc(Cl)c3Cl)c(N)n2)CC1` [Sipatrigine, 4-amino-2-(4-methyl-1-piperazinyl)-(2,3,5-trichlorophenyl)-pyrimidine], the “IFN-γ Concentration, Mean” value (1 μM) was determined as 1275.07 pg/mL; the “IFN-γ Concentration, Mean” value (3 μM) was 1227.27 pg/mL; the “IFN-γ Concentration, Mean” value (10 μM) stood at 1331.70 pg/mL; the “IFN-γ Concentration, Mean” value (30 μM) turned out to be 892.89 pg/mL. In addition, under “Experiment 1, human PBMCs”, the “inhibition of IFN-γ production (in words)” value is “did not inhibit IFN-γ production”.
